Assays:
[1] = 101.3 kPa, Liquid
[2] = xn = mol fraction of the nth substance listed; conditions: 101.3 kPa, Liquid

CC(C)O [propan-2-ol]
[1]
Conditions | mass density [kg/m3] | viscosity [mPa·s]
298.15 K | 781.09 | 2.055
303.15 K | 776.57 | 1.788
308.15 K | 771.87 | 1.563
313.15 K | 767.36 | 1.378

CCCCCC(C)O (configuration not stated) [2-heptanol]
[1]
Conditions | mass density [kg/m3] | viscosity [mPa·s]
298.15 K | 813.18 | 5.023
303.15 K | 809.26 | 4.151
308.15 K | 805.01 | 3.478
313.15 K | 801.14 | 2.852

CCC(C)O (configuration not stated) [butan-2-ol]
[1]
Conditions | mass density [kg/m3] | viscosity [mPa·s]
298.15 K | 803.01 | 3.104
303.15 K | 798.29 | 2.597
308.15 K | 793.57 | 2.152
313.15 K | 789.15 | 1.733

O=C1CCCCC1 [cyclohexanone]
[1]
Conditions | mass density [kg/m3] | viscosity [mPa·s]
298.15 K | 941.91 | 2.057
303.15 K | 937.24 | 1.847
308.15 K | 932.67 | 1.694
313.15 K | 927.72 | 1.546

CCCC(C)O (configuration not stated) [pentan-2-ol]
[1]
Conditions | mass density [kg/m3] | viscosity [mPa·s]
298.15 K | 805.41 | 3.499
303.15 K | 801.21 | 2.801
308.15 K | 796.64 | 2.334
313.15 K | 792.51 | 1.993

O=C1CCCCC1 [cyclohexanone] + CC(C)O
[2]
Conditions | mass density, 298.15 K [kg/m3] | mass density, 303.15 K [kg/m3] | mass density, 308.15 K [kg/m3] | mass density, 313.15 K [kg/m3] | viscosity, 298.15 K [mPa·s] | viscosity, 303.15 K [mPa·s] | viscosity, 308.15 K [mPa·s] | viscosity, 313.15 K [mPa·s]
x1 = 0.0812 | 797.69 | 792.97 | 788.11 | 783.28 | 1.689 | 1.489 | 1.301 | 1.142
x1 = 0.1576 | 812.54 | 807.67 | 802.73 | 797.79 | 1.436 | 1.268 | 1.098 | 0.961
x1 = 0.2398 | 827.76 | 822.83 | 817.68 | 812.71 | 1.236 | 1.081 | 0.934 | 0.817
x1 = 0.3495 | 846.99 | 841.93 | 836.59 | 831.76 | 1.067 | 0.934 | 0.809 | 0.715
x1 = 0.4363 | 861.43 | 856.27 | 851.05 | 846.26 | 1.023 | 0.899 | 0.779 | 0.689
x1 = 0.5601 | 880.96 | 875.76 | 870.51 | 865.33 | 1.076 | 0.951 | 0.845 | 0.751
x1 = 0.6502 | 894.41 | 889.21 | 884.09 | 878.95 | 1.177 | 1.056 | 0.949 | 0.854
x1 = 0.7403 | 907.32 | 902.15 | 897.23 | 892.17 | 1.331 | 1.202 | 1.087 | 0.995
x1 = 0.8481 | 922.15 | 917.06 | 912.28 | 907.09 | 1.581 | 1.437 | 1.301 | 1.211
x1 = 0.9384 | 934.01 | 929.05 | 924.41 | 919.35 | 1.845 | 1.675 | 1.537 | 1.412
x1 = 1 | 941.91 | 937.24 | 932.67 | 927.72 | 2.057 | 1.847 | 1.694 | 1.546

CCCCC(C)O (configuration not stated) [2-hexanol]
[1]
Conditions | mass density [kg/m3] | viscosity [mPa·s]
298.15 K | 810.14 | 4.101
303.15 K | 806.13 | 3.411
308.15 K | 802.06 | 2.819
313.15 K | 797.96 | 2.219

O=C1CCCCC1 [cyclohexanone] + CCCCC(C)O
[2], x1 = 1
Conditions | mass density [kg/m3] | viscosity [mPa·s]
298.15 K | 941.91 | 2.057
303.15 K | 937.24 | 1.847
308.15 K | 932.67 | 1.694
313.15 K | 927.72 | 1.546

CCCCC(C)O (configuration not stated) [2-hexanol] + O=C1CCCCC1
[2]
Conditions | mass density, 298.15 K [kg/m3] | mass density, 303.15 K [kg/m3] | mass density, 308.15 K [kg/m3] | mass density, 313.15 K [kg/m3] | viscosity, 298.15 K [mPa·s] | viscosity, 303.15 K [mPa·s] | viscosity, 308.15 K [mPa·s] | viscosity, 313.15 K [mPa·s]
x2 = 0 | 810.14 | 806.13 | 802.06 | 797.96 | 4.101 | 3.411 | 2.819 | 2.219
x2 = 0.0821 | 818.43 | 814.12 | 809.89 | 805.91 | 3.432 | 2.834 | 2.278 | 1.686
x2 = 0.1612 | 826.61 | 822.29 | 818.07 | 814.07 | 2.879 | 2.346 | 1.823 | 1.307
x2 = 0.2409 | 835.25 | 830.81 | 826.44 | 822.41 | 2.406 | 1.932 | 1.453 | 1.024
x2 = 0.3496 | 847.88 | 843.37 | 838.88 | 834.71 | 1.896 | 1.477 | 1.122 | 0.781
x2 = 0.4391 | 858.93 | 854.32 | 849.76 | 845.48 | 1.591 | 1.23 | 0.949 | 0.679
x2 = 0.56 | 874.62 | 869.92 | 865.28 | 860.83 | 1.359 | 1.08 | 0.873 | 0.655
x2 = 0.649 | 886.88 | 882.07 | 877.39 | 872.97 | 1.325 | 1.082 | 0.907 | 0.727
x2 = 0.7391 | 899.87 | 895.12 | 890.41 | 885.97 | 1.388 | 1.173 | 1.026 | 0.85
x2 = 0.8492 | 916.79 | 912.01 | 907.19 | 902.71 | 1.576 | 1.4 | 1.249 | 1.068
x2 = 0.9395 | 931.44 | 926.63 | 921.93 | 917.21 | 1.842 | 1.662 | 1.505 | 1.326
